Results reported in publication PMC12518996 (Frontiers in Pharmacology, 2025).

Legend:
Assay type in all cases: in vitro ADME
CYP2C8 = target: T1, CYP2C8 (Homo sapiens, UniProt P10632); assay: Metabolite formation by recombinant human CYP2C8; conditions: trazodone 4 μM; NADPH; 37 °C, 40 min
T1 sequence (P10632 1-490): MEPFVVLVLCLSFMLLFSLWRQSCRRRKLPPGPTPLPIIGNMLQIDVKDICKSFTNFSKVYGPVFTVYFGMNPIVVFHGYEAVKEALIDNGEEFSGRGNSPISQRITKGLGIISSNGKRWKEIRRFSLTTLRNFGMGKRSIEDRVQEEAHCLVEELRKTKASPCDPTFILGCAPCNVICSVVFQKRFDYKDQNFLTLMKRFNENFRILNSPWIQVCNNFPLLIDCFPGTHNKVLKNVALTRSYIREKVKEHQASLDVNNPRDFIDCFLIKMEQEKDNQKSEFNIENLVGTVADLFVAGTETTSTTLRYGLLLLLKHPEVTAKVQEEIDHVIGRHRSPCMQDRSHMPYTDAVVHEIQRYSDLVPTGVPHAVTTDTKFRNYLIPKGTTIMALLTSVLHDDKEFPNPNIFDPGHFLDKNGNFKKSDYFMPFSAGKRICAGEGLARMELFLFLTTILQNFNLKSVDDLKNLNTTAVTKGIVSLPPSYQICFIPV
Method: (§1) To confirm the role of individual CYP isoforms in metabolizing trazodone, recombinant human and rat CYP enzymes were employed in separate incubations. […] Each reaction was terminated with acetonitrile, centrifuged, and the supernatant was analyzed by identical UHPLC-Orbitrap setup outlined in §2.2, allowing direct comparison of metabolite spectra across all in-vitro systems. […] This procedure helped confirm the contributions of individual isoforms to specific biotransformation reactions.

FMO1 = target: T2, FMO1 (Homo sapiens, UniProt Q01740); assay: Metabolite formation by recombinant human FMO1; conditions: trazodone 4 μM; 37 °C, 40 min
T2 sequence (Q01740 1-532): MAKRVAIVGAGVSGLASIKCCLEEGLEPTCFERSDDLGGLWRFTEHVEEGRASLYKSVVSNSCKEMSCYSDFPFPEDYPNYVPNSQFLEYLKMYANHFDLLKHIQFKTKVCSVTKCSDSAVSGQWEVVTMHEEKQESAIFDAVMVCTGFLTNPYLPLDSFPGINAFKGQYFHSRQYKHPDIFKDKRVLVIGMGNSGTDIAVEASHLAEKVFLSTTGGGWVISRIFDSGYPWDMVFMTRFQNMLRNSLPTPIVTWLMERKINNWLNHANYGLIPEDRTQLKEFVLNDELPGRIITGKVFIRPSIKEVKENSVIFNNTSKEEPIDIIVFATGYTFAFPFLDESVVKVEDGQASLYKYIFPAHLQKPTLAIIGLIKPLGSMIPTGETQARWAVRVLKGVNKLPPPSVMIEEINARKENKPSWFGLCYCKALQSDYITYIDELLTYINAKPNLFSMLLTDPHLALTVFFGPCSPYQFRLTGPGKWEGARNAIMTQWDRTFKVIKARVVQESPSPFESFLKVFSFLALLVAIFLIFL

CYP3A4 = CYP3A4 (Homo sapiens, UniProt P08684); assay: Metabolite formation by recombinant human CYP3A4; conditions: trazodone 4 μM; NADPH; 37 °C, 40 min
Sequence of CYP3A4 (P08684 whole entry): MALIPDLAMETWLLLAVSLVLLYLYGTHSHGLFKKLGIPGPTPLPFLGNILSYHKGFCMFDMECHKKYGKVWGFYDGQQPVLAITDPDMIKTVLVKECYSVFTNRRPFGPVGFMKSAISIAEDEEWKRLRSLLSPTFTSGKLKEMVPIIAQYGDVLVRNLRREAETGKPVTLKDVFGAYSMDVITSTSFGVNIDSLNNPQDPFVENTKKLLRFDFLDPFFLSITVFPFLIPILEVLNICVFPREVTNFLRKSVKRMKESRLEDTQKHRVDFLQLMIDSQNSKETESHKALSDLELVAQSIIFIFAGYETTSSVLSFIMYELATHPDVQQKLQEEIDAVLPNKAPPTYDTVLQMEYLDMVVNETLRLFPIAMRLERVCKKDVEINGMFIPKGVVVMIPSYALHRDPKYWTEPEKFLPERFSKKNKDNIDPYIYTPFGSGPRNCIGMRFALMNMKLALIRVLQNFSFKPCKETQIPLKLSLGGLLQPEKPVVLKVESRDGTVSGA
Method: Each reaction was terminated with acetonitrile, centrifuged, and the supernatant was analyzed by identical UHPLC-Orbitrap setup outlined in §2.2, allowing direct comparison of metabolite spectra across all in-vitro systems.

AOX = target: T3, AOX (Homo sapiens, UniProt Q06278); assay: Metabolite formation by recombinant human AOX; conditions: trazodone 4 μM; 37 °C, 40 min
T3 sequence (Q06278 1-1338): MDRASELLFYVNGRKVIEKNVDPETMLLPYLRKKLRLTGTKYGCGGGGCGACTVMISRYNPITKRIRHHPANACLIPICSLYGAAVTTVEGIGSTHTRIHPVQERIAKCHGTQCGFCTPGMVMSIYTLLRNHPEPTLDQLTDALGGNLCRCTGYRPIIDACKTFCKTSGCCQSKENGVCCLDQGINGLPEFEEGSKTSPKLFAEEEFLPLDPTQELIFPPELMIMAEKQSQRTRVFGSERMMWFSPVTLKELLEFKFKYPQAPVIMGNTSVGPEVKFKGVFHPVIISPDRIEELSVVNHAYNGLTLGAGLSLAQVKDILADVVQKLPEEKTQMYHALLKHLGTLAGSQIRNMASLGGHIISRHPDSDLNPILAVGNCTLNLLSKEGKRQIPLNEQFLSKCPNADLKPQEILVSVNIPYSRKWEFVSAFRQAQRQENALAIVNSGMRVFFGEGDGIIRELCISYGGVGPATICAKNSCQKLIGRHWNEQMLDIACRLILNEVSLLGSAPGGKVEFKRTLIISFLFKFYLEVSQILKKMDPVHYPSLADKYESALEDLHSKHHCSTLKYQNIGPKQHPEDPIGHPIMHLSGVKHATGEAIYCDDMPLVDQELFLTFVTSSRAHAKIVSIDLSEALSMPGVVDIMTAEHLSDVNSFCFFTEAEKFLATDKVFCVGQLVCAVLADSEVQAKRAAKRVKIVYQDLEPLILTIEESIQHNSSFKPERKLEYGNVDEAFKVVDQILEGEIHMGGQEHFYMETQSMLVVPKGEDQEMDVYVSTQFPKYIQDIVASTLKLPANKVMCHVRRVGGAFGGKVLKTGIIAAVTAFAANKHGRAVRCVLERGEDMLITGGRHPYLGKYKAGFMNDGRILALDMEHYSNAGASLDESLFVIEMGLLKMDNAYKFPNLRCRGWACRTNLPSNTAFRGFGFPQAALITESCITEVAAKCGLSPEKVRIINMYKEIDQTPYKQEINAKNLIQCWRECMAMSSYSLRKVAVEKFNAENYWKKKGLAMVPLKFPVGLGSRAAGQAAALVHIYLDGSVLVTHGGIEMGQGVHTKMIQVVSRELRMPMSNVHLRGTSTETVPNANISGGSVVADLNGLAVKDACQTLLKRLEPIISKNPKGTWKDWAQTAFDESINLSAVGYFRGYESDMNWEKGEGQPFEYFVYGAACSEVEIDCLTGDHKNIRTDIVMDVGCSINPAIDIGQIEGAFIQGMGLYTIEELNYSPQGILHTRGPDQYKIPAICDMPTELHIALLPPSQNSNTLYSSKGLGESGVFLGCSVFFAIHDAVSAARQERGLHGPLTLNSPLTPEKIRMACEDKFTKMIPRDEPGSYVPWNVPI

CYP2D6 = CYP2D6 (Homo sapiens, UniProt P10635); assay: Metabolite formation by recombinant human CYP2D6; conditions: trazodone 4 μM; NADPH; 37 °C, 40 min
Sequence of CYP2D6 (P10635 whole entry): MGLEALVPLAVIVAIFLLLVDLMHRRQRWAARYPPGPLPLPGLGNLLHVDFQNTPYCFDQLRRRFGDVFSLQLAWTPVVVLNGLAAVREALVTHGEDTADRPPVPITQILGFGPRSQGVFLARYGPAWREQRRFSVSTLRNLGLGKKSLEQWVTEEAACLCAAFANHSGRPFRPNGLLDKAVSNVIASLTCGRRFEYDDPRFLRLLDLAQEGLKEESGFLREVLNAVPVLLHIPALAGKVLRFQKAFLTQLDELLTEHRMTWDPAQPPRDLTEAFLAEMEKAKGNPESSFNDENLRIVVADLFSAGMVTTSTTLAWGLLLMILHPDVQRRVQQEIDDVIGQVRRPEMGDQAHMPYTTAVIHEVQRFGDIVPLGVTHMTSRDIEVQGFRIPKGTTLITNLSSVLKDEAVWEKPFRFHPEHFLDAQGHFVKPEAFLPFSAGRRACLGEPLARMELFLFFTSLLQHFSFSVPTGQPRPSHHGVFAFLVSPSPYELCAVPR
Method: as §1

SMILES | Formation of trazodone phase I metabolite by recombinant human CYP2C8 (as LC/MS peak areas) (CYP2C8) | Formation of trazodone phase I metabolite by recombinant human FMO1 (as LC/MS peak areas) (FMO1) | Formation of trazodone phase I metabolite by recombinant human CYP3A4 (as LC/MS peak areas) (CYP3A4) | Formation of trazodone phase I metabolite by recombinant human AOX (as LC/MS peak areas) (AOX) | Formation of trazodone phase I metabolite by recombinant human CYP2D6 (as LC/MS peak areas) (CYP2D6)
Clc1cccc(N2CCNCC2)c1 [mCPP, m-chlorophenylpiperazine] | 327 | 6 | 32991 | 106 | 0
O=c1n(CCCO)nc2ccccn12 [Metabolite M20] | 0 | 0 | 236 | 0 | 0
O=c1n(CCCN2CCNCC2)nc2ccccn12 [Metabolite M15] | 26 | 0 | 6716 | 0 | 0
